Results reported in patent publication US20240158418A1 (C4 Therapeutics, Inc., priority 2021, published 2024).
Where two headings read alike, the source gives them in different places.

Experiments:
[1] = tested on: BaF3 cells expressing EGFR L858R; test: Ba/F3 EGFR cell viability (CellTiter-Glo), L858R; assay type: cell-based; conditions: Mus musculus, read-out: CTGlo (GI50)
Description: (§1) RPMI 1640 media, cell culture flasks, and 384-well microplates were purchased from VWR (Radnor, PA, USA). Fetal bovine serum (FBS) was purchased from Life Technologies (Carlsbad, CA, USA) and CellTiter-Glo® was purchased from Promega (Madison, WI, USA). The Ba/F3 parental cell line was purchased from CrownBio (Santa Clara, CA). BaF3 cell lines ectopically expressing the EGFR mutations L858R, L858R-T790M, L858R-C797S, and L858R-T790M-C797S were purchased from CrownBio and EGFR mutations L858R-L718Q, L858R-T790M-L718Q, L858R-L792H, and L858R-T790M-L792H, were purchased from Signosis (Santa Clara, CA).
(§2) Cell viability was assessed based on the quantification of ATP using the CellTiter-Glo® assay (Promega, Madison, WI, USA). To determine the effect of compounds on cell viability, all Ba/F3 cell lines were plated at a cell density of 2000 cells/well in 384-well plates using RPMI 1640+10% FBS and treated with compounds of interest using a 10-point half-log dilution series in duplicate for 72 hours, with the highest dose set at […]. CellTiter-Glo® reagent was then added and luminescence signals were measured using an EnVision™ Multimode plate reader (Perkin Elmer, Santa Clara, CA). For data normalization, cells untreated with the test compounds at Time=72 hours were set to 100% (equivalent to maximal cell growth after 72 hours); cells untreated with the test compounds at Time=0 hours were set to 0% (equivalent to cytostasis); and media-only wells were set to −100% (equivalent to complete cytotoxicity). % Viability was determined by normalizing the signal with positive and DMSO treated negative controls on the same microtiter plate. The half-maximal inhibition of cell growth (GI50) is computed from where the fitted curve crosses 50% while the half-maximal lethal dose (LD50) is computed from where the fitted curve crosses −50%.

[2] = biological target: T1, pY1068 EGFR L858R (Homo sapiens, UniProt P00533, L858R); test: Phospho-EGFR (pY1068) inhibition HTRF, NCI-H3255; assay type: cell-based; conditions: 6 hours, read-out: pEGFR IC50
T1 construct: NCI-H3255 (harboring EGFR heterozygous L858R mutation); host or cells: NCI-H3255
Description: (§3) NCI-H1975 (harboring EGFR heterozygous L858R-T790M mutations) and NCI-H3255 (harboring EGFR heterozygous L858R mutation) were purchased from ATCC and NCI, respectively. NCI-H1975+CS (harboring EGFR heterozygous L858R-T790M-C797S mutations) was generated using CRISPR technology to introduce the additional C797S mutation by Horizon Discovery. A431 (harboring EGFR wildtype) was purchased from ATCC. RPMI 1640 no-phenol red medium and fetal bovine serum (FBS) were purchased from Gibco (Grand Island, NY, USA). Cell culture flasks and 384-well microplates were acquired from VWR (Radnor, PA, USA). Phosphorylated (pY1068) EGFR and Total EGFR (using L858R-specific detection antibody and pan-EGFR antibody for EGFR mutant cell lines and EGFR wild-type cell lines, respectively) HTRF assay kits were purchased from Cisbio (Bedford, MA, USA).
(§4) Degradation of EGFR protein containing L858R mutation or wild-type was determined based on quantification of FRET signal using a Total EGFR (L858R-specific or pan-EGFR detecting) HTRF assay kit. Phospho-EGFR (pEGFR) inhibition was determined based on quantification of FRET signal using a pY1068 EGFR HTRF assay kit. In separate assay plates, test compounds were added to the 384-well plate from a top concentration of 10 μM with 11 points, half log titration in duplicates. For each assay, 12.5 uL of cells suspended in assay media (RPMI 1640 no-phenol red medium+10% FBS) at cell densities indicated for each cell line in Table 8 below were dispensed using a multi-channel pipette to 384-well low volume white HTRF microplates containing a duplicate concentration range of test compounds and DMSO controls. The plates were kept at 37° C. with 5% CO2 for 6 hours and then incubated with either phospho EGFR or Total EGFR HTRF detection antibodies according to the cell line and EGFR mutant being assayed. Cells treated in the absence of the test compound were the negative control. Positive control was set by wells containing all reagents but no cells. FRET signal was acquired on EnVision™ Multilabel Reader (PerkinElmer, Santa Clara, CA, USA). Compound concentration that achieves 50% degradation and inhibition was reported as DC50 and IC50, respectively.

[3] = tested on: BaF3 cells expressing wild-type EGFR; test: Ba/F3 EGFR cell viability (CellTiter-Glo), wild-type EGFR; assay type: cell-based; conditions: Mus musculus, Ba/F3 WT EGFR, read-out: CTGlo (GI50)
[4] = biological target: T2, EGFR L858R-T790M (Homo sapiens, UniProt P00533, L858R/T790M); test: EGFR degradation, Total EGFR (L858R-specific) HTRF, NCI-H1975; assay type: cell-based; conditions: 6 hours
T2 construct: NCI-H1975 (harboring EGFR heterozygous L858R-T790M mutations); host or cells: NCI-H1975
T2 sequence (P00533 25-1210 T790M/L858R): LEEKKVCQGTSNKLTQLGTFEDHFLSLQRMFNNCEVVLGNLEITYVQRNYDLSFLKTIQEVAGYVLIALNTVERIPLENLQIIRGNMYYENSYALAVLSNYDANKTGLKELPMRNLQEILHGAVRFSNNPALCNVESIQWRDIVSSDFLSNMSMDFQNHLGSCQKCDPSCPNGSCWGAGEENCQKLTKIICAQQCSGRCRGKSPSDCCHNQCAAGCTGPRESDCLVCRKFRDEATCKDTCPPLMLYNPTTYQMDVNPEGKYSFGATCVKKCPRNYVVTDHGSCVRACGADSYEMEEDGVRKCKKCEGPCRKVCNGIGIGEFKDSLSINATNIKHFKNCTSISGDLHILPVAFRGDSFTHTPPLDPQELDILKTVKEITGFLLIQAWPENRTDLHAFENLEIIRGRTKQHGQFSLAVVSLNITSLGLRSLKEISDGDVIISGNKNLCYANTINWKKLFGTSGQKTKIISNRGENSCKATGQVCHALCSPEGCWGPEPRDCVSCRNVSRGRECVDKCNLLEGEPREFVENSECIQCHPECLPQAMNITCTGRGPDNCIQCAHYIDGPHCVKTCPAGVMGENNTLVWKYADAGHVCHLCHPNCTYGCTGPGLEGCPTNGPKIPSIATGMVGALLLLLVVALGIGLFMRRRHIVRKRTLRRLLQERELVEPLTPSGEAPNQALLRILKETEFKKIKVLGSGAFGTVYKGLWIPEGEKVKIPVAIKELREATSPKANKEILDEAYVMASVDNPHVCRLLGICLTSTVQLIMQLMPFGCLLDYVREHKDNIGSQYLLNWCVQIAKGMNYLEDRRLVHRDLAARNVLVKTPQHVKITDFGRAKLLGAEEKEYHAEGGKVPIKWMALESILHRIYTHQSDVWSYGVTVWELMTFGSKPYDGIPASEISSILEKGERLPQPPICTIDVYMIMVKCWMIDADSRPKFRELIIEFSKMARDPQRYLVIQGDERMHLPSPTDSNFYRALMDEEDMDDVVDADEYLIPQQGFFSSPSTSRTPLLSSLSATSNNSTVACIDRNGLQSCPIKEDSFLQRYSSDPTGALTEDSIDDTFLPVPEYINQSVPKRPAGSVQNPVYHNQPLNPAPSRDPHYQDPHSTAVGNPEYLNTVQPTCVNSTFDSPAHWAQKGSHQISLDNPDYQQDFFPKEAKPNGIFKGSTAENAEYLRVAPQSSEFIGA
Method in brief: (§5)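 HTRF read-outs: pY1068 phospho-EGFR for IC50; total EGFR (pan-EGFR in A431, L858R-specific in mutant lines) for DC50. Compounds were titrated 11 points, half-log, from 10 μM in duplicate onto cells in 10% FBS RPMI, incubated 6 h at 37°C.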

[5] = tested on: BaF3 cells expressing EGFR L858R-T790M-C797S; test: Ba/F3 EGFR cell viability (CellTiter-Glo), L858R-T790M-C797S; assay type: cell-based; conditions: Mus musculus, read-out: CTGlo (GI50)
Description: as §1, §2

[6] = biological target: T3, pY1068 EGFR L858R-T790M-C797S (Homo sapiens, UniProt P00533, C797S/L858R/T790M); test: Phospho-EGFR (pY1068) inhibition HTRF, NCI-H1975+CS; assay type: cell-based; conditions: 6 hours, read-out: pEGFR IC50
T3 construct: generated using CRISPR technology to introduce the additional C797S mutation by Horizon Discovery; host or cells: NCI-H1975+CS (CRISPR knock-in of C797S)
T3 sequence (P00533 25-1210 T790M/C797S/L858R): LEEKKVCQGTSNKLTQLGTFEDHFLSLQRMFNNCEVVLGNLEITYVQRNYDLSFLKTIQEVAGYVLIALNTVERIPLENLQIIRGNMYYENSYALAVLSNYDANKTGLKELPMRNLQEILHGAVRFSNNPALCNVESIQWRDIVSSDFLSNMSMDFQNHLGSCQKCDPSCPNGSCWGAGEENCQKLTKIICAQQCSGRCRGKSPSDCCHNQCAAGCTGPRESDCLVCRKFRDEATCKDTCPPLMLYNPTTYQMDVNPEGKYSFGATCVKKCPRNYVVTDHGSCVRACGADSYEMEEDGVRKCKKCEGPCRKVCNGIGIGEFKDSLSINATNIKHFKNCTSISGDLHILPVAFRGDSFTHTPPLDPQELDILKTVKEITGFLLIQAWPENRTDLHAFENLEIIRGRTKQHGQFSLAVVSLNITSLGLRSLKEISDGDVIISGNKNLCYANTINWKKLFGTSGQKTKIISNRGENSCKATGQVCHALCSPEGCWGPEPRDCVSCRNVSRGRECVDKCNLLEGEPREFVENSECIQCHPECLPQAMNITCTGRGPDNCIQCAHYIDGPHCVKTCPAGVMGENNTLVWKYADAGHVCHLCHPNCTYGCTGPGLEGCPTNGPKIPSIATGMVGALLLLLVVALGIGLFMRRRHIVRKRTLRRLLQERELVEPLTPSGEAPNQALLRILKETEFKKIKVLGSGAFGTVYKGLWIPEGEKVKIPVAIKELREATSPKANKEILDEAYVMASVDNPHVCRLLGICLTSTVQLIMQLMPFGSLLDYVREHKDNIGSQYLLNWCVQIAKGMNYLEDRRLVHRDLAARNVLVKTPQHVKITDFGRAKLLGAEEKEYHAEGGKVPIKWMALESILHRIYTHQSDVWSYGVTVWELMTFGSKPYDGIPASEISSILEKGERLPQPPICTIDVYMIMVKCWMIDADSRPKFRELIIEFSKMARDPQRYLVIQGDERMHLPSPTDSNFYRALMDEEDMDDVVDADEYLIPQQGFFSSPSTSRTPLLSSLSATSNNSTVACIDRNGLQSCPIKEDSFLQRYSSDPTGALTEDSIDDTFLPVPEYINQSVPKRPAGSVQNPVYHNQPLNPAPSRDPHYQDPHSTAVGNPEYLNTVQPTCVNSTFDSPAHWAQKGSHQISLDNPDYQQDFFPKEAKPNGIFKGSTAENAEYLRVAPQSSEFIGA
Description: as §3, §4

[7] = biological target: EGFR L858R (Homo sapiens, UniProt P00533, L858R); test: EGFR degradation, Total EGFR (L858R-specific) HTRF, NCI-H3255; assay type: cell-based; parameters: NCI-H3255 (harboring EGFR heterozygous L858R mutation); host or cells: NCI-H3255; conditions: H3255 (L858R), 6 hours; read-out: tEGFR DC50
Method in brief: as §5

[8] = tested on: BaF3 cells expressing EGFR L858R-C797S; test: Ba/F3 EGFR cell viability (CellTiter-Glo), L858R-C797S; assay type: cell-based; conditions: Mus musculus, read-out: CTGlo (GI50)
Description: as §1, §2

[9] = biological target: T4, EGFR L858R-T790M-C797S (Homo sapiens, UniProt P00533, C797S/L858R/T790M); test: EGFR degradation, Total EGFR (L858R-specific) HTRF, NCI-H1975+CS; assay type: cell-based; conditions: H1975 + CS (L858R-T790M-C797S), 6 hours; read-out: tEGFR DC50
T4 construct: generated using CRISPR technology to introduce the additional C797S mutation by Horizon Discovery; host or cells: NCI-H1975+CS (CRISPR knock-in of C797S)
T4 sequence (P00533 25-1210 T790M/C797S/L858R): as above
Method in brief: as §5

[10] = biological target: T5, EGFR WT (Homo sapiens, UniProt P00533); test: EGFR degradation, Total EGFR (pan-EGFR) HTRF, A431; assay type: cell-based; conditions: A431 (wild-type), 6 hours; read-out: tEGFR DC50
T5 construct: A431 (harboring EGFR wildtype) was purchased from ATCC; host or cells: A431
Description: as §3, §4

[11] = tested on: BaF3 cells expressing EGFR L858R-T790M; test: Ba/F3 EGFR cell viability (CellTiter-Glo), L858R-T790M; assay type: cell-based; conditions: Mus musculus, read-out: CTGlo (GI50)
Description: as §1, §2

[12] = biological target: T6, pY1068 EGFR L858R-T790M (Homo sapiens, UniProt P00533, L858R/T790M); test: Phospho-EGFR (pY1068) inhibition HTRF, NCI-H1975; assay type: cell-based; conditions: 6 hours, read-out: pEGFR IC50
T6 construct: NCI-H1975 (harboring EGFR heterozygous L858R-T790M mutations); host or cells: NCI-H1975
T6 sequence (P00533 25-1210 T790M/L858R): as the sequence (P00533 25-1210 T790M/L858R) above
Description: as §3, §4

[13] = tested on: BaF3 cells expressing EGFR L858R-L718Q; test: Ba/F3 EGFR cell viability (CellTiter-Glo), L858R-L718Q; assay type: cell-based; conditions: Mus musculus, read-out: CTGlo (GI50)
Description: as §1, §2

[14] = tested on: BaF3 cells expressing EGFR L858R-L792H; test: Ba/F3 EGFR cell viability (CellTiter-Glo), L858R-L792H; assay type: cell-based; conditions: Mus musculus, read-out: CTGlo (GI50)
Description: as §1, §2

[15] = tested on: BaF3 cells expressing EGFR L858R-T790M-L792H; test: Ba/F3 EGFR cell viability (CellTiter-Glo), L858R-T790M-L792H; assay type: cell-based; conditions: Mus musculus, read-out: CTGlo (GI50)
Description: as §1, §2

[16] = tested on: BaF3 cells expressing EGFR L858R-T790M-L718Q; test: Ba/F3 EGFR cell viability (CellTiter-Glo), L858R-T790M-L718Q; assay type: cell-based; conditions: Mus musculus, read-out: CTGlo (GI50)
Description: as §1, §2

[17] = tested on: engineered triple mutant EGFR (L858R-T790M-C797S) BaF3 tumors; test: BaF3 triple mutant EGFR allograft efficacy; assay type: in vivo, female BALB/c nude mice; conditions: Compound 1 or 2 at 20, 50, 100 mg/kg/day PO BID; osimertinib 25 mg/kg/day PO QD; 14 days
Protocol: Each Compound was administered BID (twice a day) orally (PO).
Tumor volume was measured twice weekly in two dimensions using calipers, and volume (mm^3) was calculated using the formula: V=0.5 a×b^2 where a and b are the long and short diameters of the tumor in mm, respectively. […] Treatment began on Day 0 with established subcutaneous BaF3 tumors with a mean tumor volume (MTV) of 108 mm^3.
Body weight and MTV were measured on a 2× weekly schedule. Statistical analysis was performed using a one-way ANOVA followed by Dunnett's multiple comparison test. Data are expressed as MTV±SEM.

[18] = Table 9A, NCI-H1975 cells, Total EGFR HTRF, read-out: H1975 EGFR DC50
[19] = H1975 (L858R-T790M), read-out: tEGFR DC50

| GI50 [1] [nM] | IC50 [2] [nM] | GI50 [3] [nM] | DC50 [4, 18] [nM] | GI50 [5] [nM] | IC50 [6] [nM] | DC50 [7] [nM] | GI50 [8] [nM] | DC50 [9] [nM] | DC50 [10] [nM] | GI50 [11] [nM] | IC50 [12] [nM] | DC50 [4, 19] [nM] | GI50 [13] [nM] | GI50 [14] [nM] | GI50 [15] [nM] | GI50 [16] [nM] | Structure (SMILES) | efficacy on BaF3 tumor volume [17] |
| --- | --- | --- | --- | --- | --- | --- | --- | --- | --- | --- | --- | --- | --- | --- | --- | --- | --- | --- |
| 3 | 8 | 248 | < 50 | 3 | 19 | 8 | 2 | 33 | > 10000 | 9 | 11 | – | – | – | – | – | Cn1nc(N2CCC(=O)NC2=O)c2ccc(C3CCN(CC(=O)N4CC5(C4)CN(c4ccc(-c6cc(F)c7c(c6)C(=O)N(C(C(=O)Nc6nccs6)c6ncn8c6CCC8)C7)cc4)C5)CC3(F)F)cc21 (stereo not drawn) [Compound 3, 2-(6,7-dihydro-5H-pyrrolo[1,2-c]imidazol-1-yl)-2-[6-[4-[2-[2-[4-[3-(2,4-dioxohexahydropyrimidin-1-yl)-1-methyl-indazol-6-yl]-3,3-difluoro-1-piperidyl]acetyl]-2,6-diazaspiro[3.3]heptan-6-yl]phenyl]-4-fluoro-1-oxo-isoindolin-2-yl]-N-thiazol-2-yl-acetamide] | – |
| – | 19 | – | < 50 | – | 22 | 22 | – | 23 | > 10000 | – | 12 | – | – | – | – | – | Cn1nc(N2CCC(=O)NC2=O)c2ccc(C3CCN(CC(=O)N4CC5(C4)CN(c4ccc(-c6cc(F)c7c(c6)C(=O)N(C(C(=O)Nc6ccccn6)c6ncn8c6CCC8)C7)cc4)C5)CC3(F)F)cc21 (stereo not drawn) [Compound 5, 2-(6,7-dihydro-5H-pyrrolo[1,2-c]imidazol-1-yl)-2-[6-[4-[2-[2-[4-[3-(2,4-dioxohexahydropyrimidin-1-yl)-1-methyl-indazol-6-yl]-3,3-difluoro-1-piperidyl]acetyl]-2,6-diazaspiro[3.3]heptan-6-yl]phenyl]-4-fluoro-1-oxo-isoindolin-2-yl]-N-(2-pyridyl)acetamide] | – |
| – | – | – | < 50 | 10 | – | – | – | – | – | – | 17 | 15 | 17 | 7 | 23 | 45 | O=C1CCC(Nc2ccc(N3CCC(O)(CC(=O)N4CC5(C4)CN(c4ccc(-c6cc(F)c7c(c6)C(=O)N(C(C(=O)Nc6nccs6)c6ncn8c6CCC8)C7)cc4)C5)CC3)c(Cl)c2)C(=O)N1 (single isomer, unassigned; isomer 1) [Compound 7, 2-(6-(4-(6-(2-(1-(2-chloro-4-((2,6-dioxopiperidin-3-yl)amino)phenyl)-4-hydroxypiperidin-4-yl)acetyl)-2,6-diazaspiro[3.3]heptan-2-yl)phenyl)-4-fluoro-1-oxoisoindolin-2-yl)-2-(6,7-dihydro-5H-pyrrolo[1,2-c]imidazol-1-yl)-N-(thiazol-2-yl)acetamide, isomer 1] | – |
| – | – | – | – | – | – | – | – | – | – | – | – | – | – | – | – | – | C=CC(=O)Nc1cc(Nc2nccc(-c3cn(C)c4ccccc34)n2)c(OC)cc1N(C)CCN(C)C [osimertinib, reference compound] | minimal efficacy |
| – | – | – | < 50 | 13 | – | – | – | – | – | – | 22 | 23 | 2020 | 213 | 45 | 403 | O=C1CCN(c2ccc(N3CCC(O)(CC(=O)N4CC5(C4)CN(c4ccc(-c6cc(F)c7c(c6)C(=O)N(C(C(=O)Nc6nccs6)c6ncn8c6CCC8)C7)cc4)C5)CC3)c(Cl)c2)C(=O)N1 (stereo not drawn) [Compound 8, 2-[6-[4-[2-[2-[1-[2-chloro-4-(2,4-dioxohexahydropyrimidin-1-yl)phenyl]-4-hydroxy-4-piperidyl]acetyl]-2,6-diazaspiro[3.3]heptan-6-yl]phenyl]-4-fluoro-1-oxo-isoindolin-2-yl]-2-(6,7-dihydro-5H-pyrrolo[1,2-c]imidazol-1-yl)-N-thiazol-2-yl-acetamide] | – |
